We go through one compound from PMC4506562 (Chemmedchem, 2014).

The target of the experiment is T1, hsolAC (human soluble adenylate cyclase) (Homo sapiens, UniProt Q96PN6).
T1 sequence (Q96PN6 1-469): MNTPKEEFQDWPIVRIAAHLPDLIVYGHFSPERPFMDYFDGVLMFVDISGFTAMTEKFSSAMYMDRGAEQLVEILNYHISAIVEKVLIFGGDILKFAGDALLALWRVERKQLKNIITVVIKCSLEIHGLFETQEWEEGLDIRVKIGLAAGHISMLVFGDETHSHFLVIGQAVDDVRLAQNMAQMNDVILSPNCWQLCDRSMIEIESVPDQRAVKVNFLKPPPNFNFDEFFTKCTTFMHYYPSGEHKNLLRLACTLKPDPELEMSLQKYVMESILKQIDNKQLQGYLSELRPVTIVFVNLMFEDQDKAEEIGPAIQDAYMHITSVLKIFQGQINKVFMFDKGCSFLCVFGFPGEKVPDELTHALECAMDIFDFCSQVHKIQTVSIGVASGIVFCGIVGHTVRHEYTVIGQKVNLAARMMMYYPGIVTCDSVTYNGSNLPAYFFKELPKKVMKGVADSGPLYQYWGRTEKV
Description: Bridge-It cAMP fluorescence assay. The class given is biochemical.

Turning to `Cc1n[nH]cc1-c1ccc(F)cc1` [compound 1, 4-(4-Fluorophenyl)-3-methyl-1H-pyrazole], the IC50 was more than 1000 µM.
